Literature values as cited in PubChem BioAssay AID1259409 (Chemical Carcinogenesis Research Information System (CCRIS), 2018).
Values joined by “and” are separate entries in the source; they are usually repeats but may differ in a detail not shown here. Equal values may be shown once.

Tested on: rodent chemically induced tumor inhibition, incidence and multiplicity
Test: CCRIS tumor inhibitor studies
Conditions: for tumour outcome (control, treated, inhibition, significance): Carcinogen: 7,12-DIMETHYLBENZ[A]ANTHRACENE, 57-97-6

## COc1ccc2c(c1)c(CC(=O)O)c(C)n2C(=O)c1ccc(Cl)cc1
Carcinogen: 4-HYDROXYBUTYL(BUTYL)NITROSAMINE [3817-11-6], Dose [Inhibitor]: 20 MG/KG IN DIET 1 WK BEFORE CARCINOGEN (STUDY DURATION: 32 WK), Route [Inhibitor]: DIET, Species: MOUSE, Strain/Sex: B6D2F1/MALE, Target Tissue: Type of Lesion: BLADDER: CARCINOMA, Dose [Carcinogen]: 7.5 MG/WK FOR 12 WK
  outcome: 32, 3, 91%
Carcinogen: 4-HYDROXYBUTYL(BUTYL)NITROSAMINE [3817-11-6], Dose [Inhibitor]: 20 MG/KG IN DIET 20 WK AFTER LAST CARCINOGEN DOSE (STUDY DURATION: 61 WK), Route [Inhibitor]: DIET, Species: MOUSE, Strain/Sex: B6D2F1/MALE, Target Tissue: Type of Lesion: BLADDER: CARCINOMA, Dose [Carcinogen]: 7.5 MG/WK FOR 12 WK
  outcome: 66, 42, 36%
Carcinogen: 4-HYDROXYBUTYL(BUTYL)NITROSAMINE [3817-11-6], Dose [Inhibitor]: 20 MG/KG IN DIET FOR 30 WK AT 1 WK AFTER LAST CARCINOGEN TREATMENT (STUDY DURATION: 42 WK), Route [Inhibitor]: DIET, Species: MOUSE, Strain/Sex: B6D2F1/MALE, Target Tissue: Type of Lesion: BLADDER: CARCINOMA, Dose [Carcinogen]: 7.5 MG/WK FOR 12 WK
  outcome: 31, 7, 77%
Dose [Inhibitor]: 0, 0.004% IN 20% FAT DIET CONTAINING 0.5% LINOLEIC ACID BEGINNING 7 D POST CARCINOGEN DOSE AND CONTINUING FOR DURATION O, Route [Inhibitor]: ORAL, Species: RAT, Strain/Sex: SPRAGUE-DAWLEY/FEMALE, Target Tissue: Type of Lesion: MAMMARY GLAND: ADENOCARCINOMA, Dose [Carcinogen]: 5 MG AT 50-53 DAYS OF AGE, Promoter: NONE USED
  tumour outcome (control, treated, inhibition, significance): 56%, 62%, -11%, not calculated
Dose [Inhibitor]: 0, 0.004% IN 20% FAT DIET CONTAINING 4% LINOLEIC ACID BEGINNING 7 D POST CARCINOGEN DOSE AND CONTINUING FOR DURATION OF, Route [Inhibitor]: ORAL, Species: RAT, Strain/Sex: SPRAGUE-DAWLEY/FEMALE, Target Tissue: Type of Lesion: MAMMARY GLAND: ADENOCARCINOMA, Dose [Carcinogen]: 5 MG AT 50-53 DAYS OF AGE, Promoter: NONE USED
  tumour outcome (control, treated, inhibition, significance): 53%, 39%, 26%, not calculated
Dose [Inhibitor]: 0, 0.004% IN 20% FAT DIET CONTAINING 12% LINOLEIC ACID BEGINNING 7 D POST CARCINOGEN DOSE AND CONTINUING FOR DURATION OF, Route [Inhibitor]: ORAL, Species: RAT, Strain/Sex: SPRAGUE-DAWLEY/FEMALE, Target Tissue: Type of Lesion: MAMMARY GLAND: ADENOCARCINOMA, Dose [Carcinogen]: 5 MG AT 50-53 DAYS OF AGE, Promoter: NONE USED
  tumour outcome (control, treated, inhibition, significance): 69%, 50%, 28%, not calculated
Dose [Inhibitor]: 0, 0.005% IN HIGH-FAT (20% CORN OIL) DIET BEGINNING 7 D POST CARCINOGEN DOSE (STUDY DURATION: 20 WK), Route [Inhibitor]: ORAL, Species: RAT, Strain/Sex: SPRAGUE-DAWLEY/FEMALE, Target Tissue: Type of Lesion: MAMMARY GLAND: ADENOCARCINOMA, Dose [Carcinogen]: 5 MG ONCE, Promoter: NONE USED
  tumour outcome (control, treated, inhibition, significance): 26/32 (81%), 10/33 (30%), 63%, not calculated
Dose [Inhibitor]: 0, 0.005% IN HIGH-FAT DIET BEGINNING 7 D POST CARCINOGEN TREATMENT (STUDY DURATION: 48 WK), Route [Inhibitor]: ORAL, Species: RAT, Strain/Sex: SPRAGUE-DAWLEY/FEMALE, Target Tissue: Type of Lesion: MAMMARY GLAND: ADENOCARCINOMA, Dose [Carcinogen]: 5 MG ONCE AT 50 D OF AGE, Promoter: NONE USED
  tumour outcome (control, treated, inhibition, significance): 93%, 47%, 49%, p<0.01
Dose [Inhibitor]: 0, 0.005% IN LOW-FAT (0.5% CORN OIL) DIET BEGINNING 7 D POST CARCINOGEN DOSE (STUDY DURATION: 20 WK), Route [Inhibitor]: ORAL, Species: RAT, Strain/Sex: SPRAGUE-DAWLEY/FEMALE, Target Tissue: Type of Lesion: MAMMARY GLAND: ADENOCARCINOMA, Dose [Carcinogen]: 5 MG ONCE, Promoter: NONE USED
  tumour outcome (control, treated, inhibition, significance): 9/33 (27%), 11/32 (34%), -26%, not calculated
Dose [Inhibitor]: 0, 0.005% IN LOW-FAT DIET BEGINNING 7 D POST CARCINOGEN TREATMENT (STUDY DURATION: 48 WK), Route [Inhibitor]: ORAL, Species: RAT, Strain/Sex: SPRAGUE-DAWLEY/FEMALE, Target Tissue: Type of Lesion: MAMMARY GLAND: ADENOCARCINOMA, Dose [Carcinogen]: 5 MG ONCE AT 50 D OF AGE, Promoter: NONE USED
  tumour outcome (control, treated, inhibition, significance): 40%, 33%, 18%, not significant
Dose [Inhibitor]: 0, 0.1 UMOL 2/WK FOR 18 WK APPLIED 10-15 MIN PRIOR TO EACH PROMOTER DOSE (STUDY DURATION: 20 WK), Route [Inhibitor]: DERMAL, Species: MOUSE, Strain/Sex: CD-1/FEMALE, Target Tissue: Type of Lesion: SKIN: TUMOR, Dose [Carcinogen]: 200 NMOL ONCE, Promoter: 12-O-TETRADECANOYL-13-ACETATE, 16561-29-8
  tumour outcome (control, treated, inhibition, significance): 95%, 80%, 16%, not significant
Dose [Inhibitor]: 0, 0.3 UMOL 2/WK FOR 18 WK APPLIED 10-15 MIN PRIOR TO EACH PROMOTER DOSE (STUDY DURATION: 20 WK), Route [Inhibitor]: DERMAL, Species: MOUSE, Strain/Sex: CD-1/FEMALE, Target Tissue: Type of Lesion: SKIN: TUMOR, Dose [Carcinogen]: 200 NMOL ONCE, Promoter: 12-O-TETRADECANOYL-13-ACETATE, 16561-29-8
  tumour outcome (control, treated, inhibition, significance): 100%, 95%, 5%, not significant
Dose [Inhibitor]: 0, 20 UG/ML IN DRINKING WATER 24 HR/D 3 D/WK FOR 26 WK BEGINNING AT 45 D OF AGE (STUDY DURATION: 26 WK), Route [Inhibitor]: ORAL, Species: RAT, Strain/Sex: SD/FEMALE, Target Tissue: Type of Lesion: MAMMARY GLAND: TUMOR, Dose [Carcinogen]: 10 UG/ANIMAL IN CORN OIL INTRAGASTRICALLY ON 45, 50, 55 D OF AGE
  tumour outcome (control, treated, inhibition, significance): 100%, 37%, 63%, p<0.001
Dose [Inhibitor]: 0.004% DIET FOR 22 WK STARTING 3 D AFTER CARCINOGEN ADMINISTRATION (STUDY DURATION: 22 WK), Route [Inhibitor]: ORAL, Species: RAT, Strain/Sex: SPRAGUE-DAWLEY/FEMALE, Target Tissue: Type of Lesion: MAMMARY GLANDS: ADENOCARCINOMA, Dose [Carcinogen]: 5 MG ONCE, Promoter: NONE USED
  tumour outcome (control, treated, inhibition, significance): 44%, 41%, 7%, not significant and 59%, 38%, 36%, not significant
Dose [Inhibitor]: 28 NMOL IN 0.2 ML ACETONE APPLIED 2/WK FOR 16 WK 5 HR BEFORE EACH PROMOTER APPLICATION BEGINNING 2 WK POST CARCINOGEN TR, Route [Inhibitor]: DERMAL, Species: MOUSE, Strain/Sex: CD-1/FEMALE, Target Tissue: Type of Lesion: SKIN: PAPILLOMA, Dose [Carcinogen]: 0.2 UMOL IN 0.2 ML ACETONE ONCE, Promoter: 12-O-TETRADECANOYLPHORBOL-13-ACETATE, 16561-29-8
  tumour outcome (control, treated, inhibition, significance): 100%, 97%, 3%, not significant
Dose [Inhibitor]: 280 NMOL IN 0.2 ML ACETONE APPLIED 2/WK FOR 16 WK 5 HR BEFORE EACH PROMOTER APPLICATION BEGINNING 2 WK POST CARCINOGEN D, Route [Inhibitor]: DERMAL, Species: MOUSE, Strain/Sex: CD-1/FEMALE, Target Tissue: Type of Lesion: SKIN: PAPILLOMA, Dose [Carcinogen]: 0.2 UMOL IN 0.2 ML ACETONE ONCE, Promoter: 12-O-TETRADECANOYLPHORBOL-13-ACETATE, 16561-29-8
  tumour outcome (control, treated, inhibition, significance): 100%, 88%, 12%, not significant
Dose [Inhibitor]: 280 NMOL IN 0.2 ML ACETONE APPLIED 2/WK FOR 20 WK 2 HR BEFORE EACH PROMOTER APPLICATION BEGINNING 2 WK POST CARCINOGEN D, Route [Inhibitor]: DERMAL, Species: MOUSE, Strain/Sex: CD-1/FEMALE, Target Tissue: Type of Lesion: SKIN: PAPILLOMA, Dose [Carcinogen]: 0.2 UMOL IN 0.2 ML ACETONE ONCE, Promoter: 12-O-TETRADECANOYLPHORBOL-13-ACETATE, 16561-29-8
  tumour outcome (control, treated, inhibition, significance): 90%, 84%, 7%, not significant
Carcinogen: ACETOXYMETHYL(METHYLNITROSAMINE), 56856-83-8, Dose [Inhibitor]: 0, 0.001% IN DRINKING WATER FOR 10 WK ADMINISTERED CONCURRENTLY WITH CARCINOGEN TREATMENT (STUDY DURATION: 31 WK), Route [Inhibitor]: ORAL, Species: RAT, Strain/Sex: SPRAGUE-DAWLEY/MALE, Target Tissue: Type of Lesion: LARGE BOWEL: TUMORS, Dose [Carcinogen]: 2 MG/KG BW 1/WK FOR 10 WK, Promoter: NONE USED
  outcome: 28/29 (97%), 30/30 (100%), -3%, not significant at 21 wk; 20/20 (100%), 17/17 (1
Carcinogen: ACETOXYMETHYL(METHYLNITROSAMINE), 56856-83-8, Dose [Inhibitor]: 0, 0.001% IN DRINKING WATER FOR 10 WK BEGINNING POST CARCINOGEN TREATMENT (STUDY DURATION: 31 WK), Route [Inhibitor]: ORAL, Species: RAT, Strain/Sex: SPRAGUE-DAWLEY/MALE, Target Tissue: Type of Lesion: LARGE BOWEL: TUMORS, Dose [Carcinogen]: 2 MG/KG BW 1/WK FOR 10 WK, Promoter: NONE USED
  outcome: 28/29 (97%), 29/29 (100%), -3%, not significant at 21 wk; 20/20 (100%), 18/18 (1
Carcinogen: ACETOXYMETHYL(METHYLNITROSAMINE), 56856-83-8, Dose [Inhibitor]: 0, 0.001% IN DRINKING WATER FOR 20 WK ADMINISTERED CONCURRENTLY WITH CARCINOGEN TREATMENT AND CONTINUED FOR 10 WK POST C, Route [Inhibitor]: ORAL, Species: RAT, Strain/Sex: SPRAGUE-DAWLEY/MALE, Target Tissue: Type of Lesion: LARGE BOWEL: TUMORS, Dose [Carcinogen]: 2 MG/KG BW 1/WK FOR 10 WK, Promoter: NONE USED
  outcome: 28/29 (97%), 27/30 (90%), 7%, not significant at 21 wk; 20/20 (100%), 20/20 (100
